Measured values reported in ChEMBL document CHEMBL5233222, “Bridging free radical chemistry with drug discovery: A promising way for finding novel drugs efficiently” (Eur J Med Chem, 2020).

Assay: Inhibition of AAPH-induced hemolysis of human erythrocytes
Assay type: functional, cell-based
Conditions: erythrocyte

| Compound | IC50 [µM] |
| --- | --- |
| CC(C)=CCC[C@](C)(O[C@@H]1O[C@H](CO[C@@H]2O[C@H](CO)[C@@H](O)[C@H](O)[C@H]2O)[C@@H](O)[C@H](O)[C@H]1O)[C@H]1CC[C@]2(C)[C@@H]1[C@H](O)C[C@@H]1[C@@]3(C)CC[C@H](O[C@@H]4O[C@H](CO)[C@@H](O)[C@H](O)[C@H]4O[C@@H]4O[C@H](CO)[C@@H](O)[C@H](O)[C@H]4O)C(C)(C)[C@@H]3CC[C@]12C [GINSENOSIDE RB1] | 3.18 |
| CC(C)=CCC[C@](C)(O[C@@H]1O[C@H](CO[C@@H]2OC[C@@H](O)[C@H](O)[C@H]2O)[C@@H](O)[C@H](O)[C@H]1O)[C@H]1CC[C@]2(C)[C@@H]1[C@H](O)C[C@@H]1[C@@]3(C)CC[C@H](O[C@@H]4O[C@H](CO)[C@@H](O)[C@H](O)[C@H]4O[C@@H]4O[C@H](CO)[C@@H](O)[C@H](O)[C@H]4O)C(C)(C)[C@@H]3CC[C@]12C [GINSENOSIDE RB3] | 2.65 |
